The NIST ThermoML archive (doi:10.1021/je200434a)

Details: 101.33 kPa, Liquid; for viscosity: Concentric cylinders viscometry; for mass density: Vibrating tube method

CCCCCCOS(=O)(=O)[O-].CC[n+]1ccn(C)c1 [3-ethyl-1-methyl-1H-imidazolium hexyl sulfate]
Details | mass density [kg/m3] | viscosity [mPa·s]
283.15 K | – | 875
288.15 K | – | 604
293.15 K | 1133.8 | 428.3
294.15 K | 1133.12 | –
295.15 K | 1132.45 | –
296.15 K | 1131.77 | –
297.15 K | 1131.09 | –
298.15 K | 1130.42 | 311.4
299.15 K | 1129.74 | –
300.15 K | 1129.07 | –
301.15 K | 1128.4 | –
302.15 K | 1127.72 | –
303.15 K | 1127.05 | 231.5
304.15 K | 1126.38 | –
305.15 K | 1125.71 | –
306.15 K | 1125.04 | –
307.15 K | 1124.37 | –
308.15 K | 1123.7 | 175.7
309.15 K | 1123.03 | –
310.15 K | 1122.36 | –
311.15 K | 1121.7 | –
312.15 K | 1121.03 | –
313.15 K | 1120.37 | 135.9
314.15 K | 1119.7 | –
315.15 K | 1119.04 | –
316.15 K | 1118.38 | –
317.15 K | 1117.72 | –
318.15 K | 1117.06 | 106.9
319.15 K | 1116.4 | –
320.15 K | 1115.74 | –
321.15 K | 1115.08 | –
322.15 K | 1114.42 | –
323.15 K | 1113.77 | 85.4
324.15 K | 1113.12 | –
325.15 K | 1112.46 | –
326.15 K | 1111.81 | –
327.15 K | 1111.16 | –
328.15 K | 1110.51 | 69.2
329.15 K | 1109.86 | –
330.15 K | 1109.21 | –
331.15 K | 1108.56 | –
332.15 K | 1107.92 | –
333.15 K | 1107.27 | 56.8
334.15 K | 1106.63 | –
335.15 K | 1105.98 | –
336.15 K | 1105.33 | –
337.15 K | 1104.69 | –
338.15 K | 1104.05 | 47.2
339.15 K | 1103.41 | –
340.15 K | 1102.77 | –
341.15 K | 1102.13 | –
342.15 K | 1101.49 | –
343.15 K | 1100.85 | 39.6
344.15 K | 1100.21 | –
345.15 K | 1099.57 | –
346.15 K | 1098.93 | –
347.15 K | 1098.3 | –
348.15 K | 1097.66 | 33.6
349.15 K | 1097.02 | –
350.15 K | 1096.39 | –
351.15 K | 1095.75 | –
352.15 K | 1095.12 | –
353.15 K | 1094.49 | 28.8
354.15 K | 1093.85 | –
355.15 K | 1093.22 | –
356.15 K | 1092.59 | –
357.15 K | 1091.95 | –
358.15 K | 1091.32 | 24.8
359.15 K | 1090.69 | –
360.15 K | 1090.06 | –
361.15 K | 1089.43 | –
362.15 K | 1088.8 | –
363.15 K | 1088.17 | 21.6
368.15 K | – | 18.9
373.15 K | – | 16.7

CCCCCCCCOS(=O)(=O)[O-].CCn1cc[n+](C)c1 [1-ethyl-3-methylimidazolium octyl sulfate]
Details | mass density [kg/m3] | viscosity [mPa·s]
283.15 K | – | 1879
288.15 K | – | 1252.1
293.15 K | 1098.76 | 856
294.15 K | 1098.1 | –
295.15 K | 1097.43 | –
296.15 K | 1096.77 | –
297.15 K | 1096.31 | –
298.15 K | 1095.65 | 601.6
299.15 K | 1094.99 | –
300.15 K | 1094.32 | –
301.15 K | 1093.65 | –
302.15 K | 1092.99 | –
303.15 K | 1092.32 | 433.6
304.15 K | 1091.66 | –
305.15 K | 1090.99 | –
306.15 K | 1090.33 | –
307.15 K | 1089.66 | –
308.15 K | 1089 | 319.6
309.15 K | 1088.33 | –
310.15 K | 1087.67 | –
311.15 K | 1087 | –
312.15 K | 1086.34 | –
313.15 K | 1085.68 | 240.5
314.15 K | 1085.02 | –
315.15 K | 1084.36 | –
316.15 K | 1083.7 | –
317.15 K | 1083.04 | –
318.15 K | 1082.38 | 184.4
319.15 K | 1081.72 | –
320.15 K | 1081.06 | –
321.15 K | 1080.4 | –
322.15 K | 1079.75 | –
323.15 K | 1079.09 | 143.8
324.15 K | 1078.44 | –
325.15 K | 1077.78 | –
326.15 K | 1077.13 | –
327.15 K | 1076.48 | –
328.15 K | 1075.83 | 113.9
329.15 K | 1075.17 | –
330.15 K | 1074.52 | –
331.15 K | 1073.87 | –
332.15 K | 1073.23 | –
333.15 K | 1072.58 | 91.6
334.15 K | 1071.93 | –
335.15 K | 1071.29 | –
336.15 K | 1070.64 | –
337.15 K | 1070 | –
338.15 K | 1069.35 | 74.5
339.15 K | 1068.71 | –
340.15 K | 1068.07 | –
341.15 K | 1067.43 | –
342.15 K | 1066.79 | –
343.15 K | 1066.15 | 61.4
344.15 K | 1065.51 | –
345.15 K | 1064.87 | –
346.15 K | 1064.23 | –
347.15 K | 1063.6 | –
348.15 K | 1062.96 | 51.1
349.15 K | 1062.32 | –
350.15 K | 1061.69 | –
351.15 K | 1061.05 | –
352.15 K | 1060.42 | –
353.15 K | 1059.79 | 43
354.15 K | 1059.16 | –
355.15 K | 1058.53 | –
356.15 K | 1057.89 | –
357.15 K | 1057.26 | –
358.15 K | 1056.63 | 36.5
359.15 K | 1056 | –
360.15 K | 1055.37 | –
361.15 K | 1054.75 | –
362.15 K | 1054.12 | –
363.15 K | 1053.49 | 31.3
368.15 K | – | 27
373.15 K | – | 23.5
